Experiment [1] deals with T1, Peroxisome proliferator-activated receptor gamma (Homo sapiens) (UniProt P37231).
T1 sequence (whole entry): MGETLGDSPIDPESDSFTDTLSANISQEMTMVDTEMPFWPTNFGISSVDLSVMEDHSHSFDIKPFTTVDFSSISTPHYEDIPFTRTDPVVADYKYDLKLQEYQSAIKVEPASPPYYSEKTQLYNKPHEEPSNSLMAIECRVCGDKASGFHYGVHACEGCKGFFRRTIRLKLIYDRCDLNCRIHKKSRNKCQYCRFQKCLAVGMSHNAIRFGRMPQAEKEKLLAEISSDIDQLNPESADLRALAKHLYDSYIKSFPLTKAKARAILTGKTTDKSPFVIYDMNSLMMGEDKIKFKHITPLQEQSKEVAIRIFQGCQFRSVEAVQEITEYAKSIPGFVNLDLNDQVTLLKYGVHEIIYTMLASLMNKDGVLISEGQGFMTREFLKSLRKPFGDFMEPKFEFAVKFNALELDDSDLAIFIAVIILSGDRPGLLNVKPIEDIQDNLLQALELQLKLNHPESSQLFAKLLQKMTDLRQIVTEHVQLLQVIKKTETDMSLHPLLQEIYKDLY
The experiment is described as follows: Agonist activity at human PPARgamma ligand binding domain fused with GAL4 DNA binding domain transfected in African green monkey COS1 cells assessed as transcriptional activation after 24 hrs by Steady-Glo luciferase reporter gene assay. The conditions noted are these: COS-1. The experiment is classed as cell-based.

For experiment [2], the system named is ST-13. The experiment in a line: Induction of mouse ST-13 cell differentiation assessed as increase in accumulation of lipid droplets in cytosol at 2 to 4 uM after 11 days by oil red o staining-based phase contrast microscopic analysis. The format is functional.
A short description of experiment [3]: Upregulation of adiponectin mRNA expression in mouse ST-13 cells at 2 uM by RT-qPCR analysis relative to control. The experiment is classed as functional, cell-based. In general terms: Real-time PCR tracks product formation cycle by cycle.

Consider three compounds from ChEMBL document CHEMBL3580652, “Hikiamides A-C, Cyclic Pentadepsipeptides from Fusarium sp. TAMA 456” (J Nat Prod, 2015).

Calls of active or inactive are those of the source. No cut-off for these calls is given here. Where a SMILES comes first, the peptide text is derived from it. [ ]: non-standard residue; d: D form. Hica(2S) = CC(C)C[C@H](O)C(=O)O; NMeL = CN[C@@H](CC(C)C)C(=O)O

On to `CC(C)C[C@@H]1OC(=O)[C@H](Cc2ccccc2)NC(=O)[C@H](Cc2ccccc2)NC(=O)[C@H](CC(C)C)N(C)C(=O)[C@H](C(C)C)NC1=O` (cyclo(FF[Hica(2S)]V[NMeL])), for which the Activity entry in experiment [1] was “Dose-dependent effect”. For the same compound, the result in experiment [2] was Active. The fold change (FC) in experiment [3] came to 13.3.
The matching figures for `CC(C)C[C@@H]1OC(=O)[C@H](Cc2ccccc2)NC(=O)[C@H](Cc2c[nH]c3ccccc23)NC(=O)[C@H](CC(C)C)N(C)C(=O)[C@H](C(C)C)NC1=O` (cyclo(F[Hica(2S)]V[NMeL]W)): “Dose-dependent effect”, “Active” and 10.
The matching figures for `CC(C)C[C@@H]1NC(=O)[C@H](C(C)C)NC(=O)[C@H](CC(C)C)OC(=O)[C@H](Cc2ccccc2)NC(=O)[C@H](Cc2ccccc2)NC1=O` (cyclo(FF[Hica(2S)]VL)): “Dose-dependent effect”, “Active” and 5.2.
